Bounds are passed on as bounds.

The values that follow come from US9999616B2 (ZENITH EPIGENETICS LTD., priority 2013, dated 2018).

Test [1] has as its system c-myc in Human AML MV4-11 cells. Put plainly: Inhibition of cMYC expression (mRNA, real-time PCR) in MV4-11 cells. The format is cell-based. Conditions: 3 h treatment, cMYC mRNA by real-time PCR. The method, then: MV4-11 cells (CRL-9591) were plated at a density of 2.5×10^4 cells per well in 96 well U-bottom plates and treated with increasing concentrations of test compound or DMSO (0.1%) in IMDM media containing 10% FBS and penicillin/streptomycin, and incubated for 3 h at 37′C. Triplicate wells were used for each concentration. Cells were pelleted by centrifugation and harvested using the mRNA Catcher PLUS kit according to manufacturer's instructions. The eluted mRNA isolated was then used in a one-step quantitative real-time PCR reaction, using components of the RNA UltraSense™ One-Step Kit (Life Technologies) together with Applied Biosystems TaqMan® primer-probes for cMYC and Cyclophilin. Real-time PCR plates were run on a ViiA™7 real time PCR machine (Applied Biosystems), data was analyzed, normalizing the Ct values for cMYC to an internal control, prior to determining the fold expression of each sample, relative to the control.
(In general: Real-time PCR tracks product formation cycle by cycle.)

Another test has as its system hIL-6 mRNA. Put plainly: Inhibition of hIL-6 mRNA transcription in LPS-stimulated U937 macrophages. The format is cell-based, Human. The conditions noted are these: Homo sapiens, U-937, PMA-differentiated U937 cells, 1 h pretreatment, LPS 3 h, read-out: IL-6 activity. The method, then: Human leukemic monocyte lymphoma U937 cells (CRL-1593.2) were plated at a density of 3.2×10^4 cells per well in a 96-well plate in 100 μL RPMI-1640 containing 10% FBS and penicillin/streptomycin, and differentiated into macrophages for 3 days in 60 ng/mL PMA ([…]) at 37° C. in 5% CO2 prior to the addition of compound. The cells were pretreated for 1 h with increasing concentrations of test compound in 0.1% DMSO prior to stimulation with 1 ug/mL lipopolysaccharide from Escherichia coli. Triplicate wells were used for each concentration. The cells were incubated at 37° C., 5% CO2 for 3 h before the cells were harvested. At time of harvest, media was removed and cells were rinsed in 200 μL PBS. Cells were harvested using the mRNA Catcher PLUS kit according to manufacturer's instructions. The eluted mRNA was then used in a one-step quantitative real-time PCR reaction using components of the RNA UltraSense™ One-Step Kit (Life Technologies) together with Applied Biosystems TaqMan® primer-probes for hIL-6 and Cyclophilin. Real-time PCR plates were run on a ViiA™7 real time PCR machine (Applied Biosystems), data was analyzed, normalizing the Ct values for hlL-6 to an internal control, prior to determining the fold expression of each sample, relative to the control.

The next test has as its system Human AML MV-4-11 cells. Put plainly: Inhibition of cell proliferation in MV4-11 cells (CellTiter Aqueous One). Type of test: cell-based. Conditions: for IC50: MV4-11, 72 h. The method, then: MV4-11 cells (CRL-9591) were plated at a density of 5×10^4 cells per well in 96 well flat bottom plates and treated with increasing concentrations of test compound or DMSO (0.1%) in IMDM media containing 10% FBS and penicillin/streptomycin. Triplicate wells were used for each concentration and a well containing only media was used as a control. Plates were incubated at 37° C., 5% CO2 for 72 h before adding 20 µL of the CellTiter Aqueous One Solution (Promega) to each well and incubated at 37° C., 5% CO2 for an additional 3-4 h. The absorbance was read at 490 nm in a spectrophotometer and the percentage of cell titer relative to DMSO-treated cells was calculated after correcting for background by subtracting the blank well's signal. IC50 values were calculated using the GraphPad Prism software.

The target in test [2] is Brd4 bromodomain 1 (BRD4(1)) (Homo sapiens, UniProt O60885). Kind of test: Inhibition of tetra-acetylated histone H4 binding to Brd4 bromodomain 1, measured by FRET (HTRF). The conditions noted are these: 2 h at room temperature. Set-up: made in house; host or cells: E. coli BL21(DE3). The gist of the method: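 Inhibition was read as a drop in 665 nm relative to 620 nm HTRF signal after 2 h at room temperature, with IC50 from dose-response curves in duplicate wells. Reactions held 200 nM E. coli-expressed His-tagged bromodomain and 25-50 nM biotinylated tetra-acetylated histone H4 peptide. Buffer was 30 mM HEPES pH 7.4 with KF, CHAPS, BSA and 0.2% DMSO.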
Background: Time-resolved FRET reads energy transfer from a long-lived donor to a nearby acceptor.

`Cc1noc(C)c1-c1cc(Nc2ccccc2)c2nncn2c1` [Example Compound 15, 6-(3,5-dimethylisoxazol-4-yl)-N-phenyl-[1,2,4] triazolo[4,3-a]pyridin-8-amine]: the values for the IC50 (in test [1]; in the test on hIL-6 mRNA; in test [2]) were 3000 to 30000 nM, 3000 to 30000 nM and not above 300 nM, respectively. Also, the “Cell Proliferation activity” value in the test on Human AML MV-4-11 cells (72 h) is “Not active”.

`Cc1nc2c(-c3cc(C(F)(F)F)ccc3Cl)cc(-c3c(C)noc3C)cc2[nH]1` [Example Compound 162, 4-(4-(2-chloro-5-(trifluoro-methyl)phenyl)-2-methyl-1H-benzo[d]imidazol-6-yl)-3,5-dimethyl isoxazole]: the IC50 (in test [1]; in the test on hIL-6 mRNA; with Human AML MV-4-11 cells; in test [2]) was 300 to 3000 nM throughout.

Consider `Cc1nc2c(-c3cc(Cl)ccc3C)cc(-c3c(C)noc3C)cc2[nH]1` [Example Compound 105, 4-(4-(5-chloro-2-methyl-phenyl)-2-methyl-1H-benzo[d]imidazol-6-yl)-3,5-dimethyl isoxazole], for which the IC50 is not above 300 nM in test [1], not above 300 nM in the test on hIL-6 mRNA, 300 to 3000 nM in the test with Human AML MV-4-11 cells and not above 300 nM in test [2].

As to `Cc1nc2c(Oc3cc(C#N)ccc3C)cc(-c3c(C)noc3C)cc2[nH]1` [Example Compound 172, 3-((6-(3,5-dimethyl-isoxazol-4-yl)-2-methyl-1H-benzo[d]imidazol-4-yl)oxy)-4-methyl benzonitrile], the IC50 in test [1] is 300 to 3000 nM; in the test on hIL-6 mRNA it was 300 to 3000 nM; in the test with Human AML MV-4-11 cells it was 300 to 3000 nM; in test [2] it was not above 300 nM.

For `Cc1nc2c(-c3ccccc3Cl)cc(-c3c(C)noc3C)cc2[nH]1` [Example Compound 144, 4-(4-(2-chloro-phenyl)-2-methyl-1H-benzo[d]imidazol-6-yl)-3,5-dimethyl isoxazole], the IC50 (in test [1]; with hIL-6 mRNA; with Human AML MV-4-11 cells; in test [2]) was not above 300 nM in each case.

In the case of `Cc1nc2c(N3CCOCC3C)cc(-c3c(C)noc3C)cc2[nH]1` (stereo not shown) [Example Compound 177, 4-(6-(3,5-dimethyl-isoxazol-4-yl)-2-methyl-1H-benzo[d]imidazol-4-yl)-3-methyl morpholine], the IC50 in test [1] was not above 300 nM; in the test on hIL-6 mRNA, 300 to 3000 nM; in the test with Human AML MV-4-11 cells, 300 to 3000 nM; in test [2], not above 300 nM.

For the compound `Cc1nc2c(-c3cc(F)ccc3C#N)cc(-c3c(C)noc3C)cc2[nH]1` [Example Compound 94, 2-(6-(3,5-dimethyl-isoxazol-4-yl)-2-methyl-1H-benzo[d]imidazol-4-yl)-4-fluoro-benzonitrile], the IC50 was 300 to 3000 nM in test [1], 300 to 3000 nM with hIL-6 mRNA, 300 to 3000 nM with Human AML MV-4-11 cells and not above 300 nM in test [2].

Regarding `Cc1noc(C)c1-c1cc(NCc2ccc(F)cc2)c2nc[nH]c2c1` [Example Compound 38, 6-(3,5-dimethyl-isoxazol-4-yl)-N-(4-fluorobenzyl)-1H-benzo[d] imidazol-4-amine], the IC50 was 300 to 3000 nM in test [1], 300 to 3000 nM with hIL-6 mRNA, 300 to 3000 nM in the test with Human AML MV-4-11 cells and not above 300 nM in test [2].

As to `Cc1noc(C)c1-c1cc(-c2c(C)noc2C)c2nc(N3CCN(C)CC3)[nH]c2c1` [Example Compound 231, 4,4′-(2-(4-methyl-piperazin-1-yl)-1H-benzo[d]imidazole-4,6-diyl) bis(3,5-dimethylisoxazole)], the IC50 (in test [1]; with hIL-6 mRNA; in the test with Human AML MV-4-11 cells; in test [2]) was not above 300 nM in each case.

Regarding `Cc1noc(C)c1-c1cc(NCc2cccnc2)c2nc[nH]c2c1` [Example Compound 35, 6-(3,5-dimethyl-isoxazol-4-yl)-N-(pyridin-3-ylmethyl)-1H-benzo[d] imidazol-4-amine], the IC50 in test [1] is 300 to 3000 nM; in the test with hIL-6 mRNA it was 300 to 3000 nM; in the test on Human AML MV-4-11 cells it was 300 to 3000 nM; in test [2], not above 300 nM.

Take `Cc1noc(C)c1-c1cc(-c2cccc(C(N)=O)c2)c2nc[nH]c2c1` [Example Compound 36, 3-(6-(3,5-dimethyl-isoxazol-4-yl)-1H-benzo[d]imidazol-4-yl)benzamide]: the IC50 in test [1] is 300 to 3000 nM; in the test on hIL-6 mRNA, 300 to 3000 nM; in the test with Human AML MV-4-11 cells, 300 to 3000 nM; in test [2], not above 300 nM.

Turning to `CC(=O)Nc1ccccc1-c1cc(-c2c(C)noc2C)cc2[nH]c(C)nc12` [Example Compound 64, N-(2-(6-(3,5-dimethyl-isoxazol-4-yl)-2-methyl-1H-benzo[d]imidazol-4-yl)phenyl) acetamide], the IC50 in test [1] is 300 to 3000 nM; in the test with hIL-6 mRNA, not above 300 nM; with Human AML MV-4-11 cells, 300 to 3000 nM; in test [2], not above 300 nM.

For `Cc1nc2c(-c3scnc3C)cc(-c3c(C)noc3C)cc2[nH]1` [Example Compound 104, 3,5-dimethyl-4-(2-methyl-4-(4-methyl-thiazol-5-yl)-1H-benzo[d]imidazol-6-yl)isoxazole], the IC50 in test [1] was 300 to 3000 nM; in the test on hIL-6 mRNA it was not above 300 nM; in the test with Human AML MV-4-11 cells, 300 to 3000 nM; in test [2], not above 300 nM.

With `Cc1noc(C)c1-c1cc(-c2c(C)noc2C)c2c(c1)ncn2C` [Example Compound 93, 4,4′-(1-methyl-1H-benzo[d]imidazole-5,7-diyl)bis(3,5-dimethylisoxazole)], the IC50 was not above 300 nM in test [1], not above 300 nM in the test on hIL-6 mRNA, 300 to 3000 nM in the test on Human AML MV-4-11 cells and not above 300 nM in test [2].

As to `COCc1ccccc1-c1cc(-c2c(C)noc2C)cc2[nH]c(C)nc12` [Example Compound 117, 4-(4-(2-(methoxy-methyl)phenyl)-2-methyl-1H-benzo[d]imidazol-6-yl)-3,5-dimethyl-isoxazole], the IC50 (in test [1]; with hIL-6 mRNA; in the test on Human AML MV-4-11 cells; in test [2]) was not above 300 nM each time.

On to `Cc1nn(C)cc1-c1cc(-c2c(C)noc2C)cc2[nH]cnc12` [Example Compound 18, 4-(4-(1,3-dimethyl-1H-pyrazol-4-yl)-1H-benzo [d]imidazol-6-yl)-3,5-dimethyl isoxazole], for which the IC50 was 300 to 3000 nM in test [1], not above 300 nM with hIL-6 mRNA, 300 to 3000 nM in the test with Human AML MV-4-11 cells and not above 300 nM in test [2].

In the case of `Cc1nc2c(-c3ccc(F)c(F)c3C)cc(-c3c(C)noc3C)cc2[nH]1` [Example Compound 132, 4-(4-(3,4-difluoro-2-methyl-phenyl)-2-methyl-1H-benzo[d]imidazol-6-yl)-3,5-dimethyl isoxazole], the IC50 (in test [1]; in the test with hIL-6 mRNA; in the test on Human AML MV-4-11 cells; in test [2]) was 300 to 3000 nM throughout.

For the compound `Cc1nc2c(-c3c(C)cnn3C)cc(-c3c(C)noc3C)cc2[nH]1` [Example Compound 169, 4-(4-(1,4-dimethyl-1H-pyrazol-5-yl)-2-methyl-1H-benzo[d]imidazol-6-yl)-3,5-dimethyl isoxazole], the IC50 in test [1] was 300 to 3000 nM; in the test with hIL-6 mRNA, 300 to 3000 nM; in the test with Human AML MV-4-11 cells, 300 to 3000 nM; in test [2] it was not above 300 nM.

Take `Cc1nc2c(-c3cccc4ccncc34)cc(-c3c(C)noc3C)cc2[nH]1` [Example Compound 110, 4-(4-(iso-quinolin-8-yl)-2-methyl-1H-benzo[d]imidazol-6-yl)-3,5-dimethyl isoxazole]: the IC50 in test [1] was 300 to 3000 nM; with hIL-6 mRNA, 300 to 3000 nM; in the test on Human AML MV-4-11 cells, 300 to 3000 nM; in test [2] it was not above 300 nM.
